Data: patent publication US8901118B2, “Compounds and methods for kinase modulation, and indications therefor” (Plexxikon Inc., priority 2010, dated 2014)

Columns and labels:
TrkA kinase = TrkA kinase (Homo sapiens, UniProt P04629); assay: TrkA kinase biochemical activity assay (AlphaScreen); details: 100 μM ATP; read-out: Biochemical Inhibition IC50 TrkA
Summary of the method: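 Recombinant TrkA with 30 nM biotin-(E4Y)10 and 100 μM ATP in 25 mM Hepes pH 7.5, 10 mM MnCl2, 5% DMSO, 40 min at room temperature. Phosphorylation read by AlphaScreen (streptavidin donor, PY20 acceptor beads); IC50 from signal vs compound concentration. TrkC run similarly.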

BCR-NTRK3 BaF3 cells = biological target: T1, BCR-NTRK3 BaF3 cells (Homo sapiens, UniProt Q16288); assay: BaF3 BCR-NTRK3 cell proliferation assay (ATPlite); format: cell-based; details: read-out: Inhibition of Cell Proliferation IC50, BCR/BaF3 TrkC
T1 construct: fused on or other part: P11274 (Breakpoint cluster region protein)
T1 sequence (Q16288 whole entry, the tested form may be a part): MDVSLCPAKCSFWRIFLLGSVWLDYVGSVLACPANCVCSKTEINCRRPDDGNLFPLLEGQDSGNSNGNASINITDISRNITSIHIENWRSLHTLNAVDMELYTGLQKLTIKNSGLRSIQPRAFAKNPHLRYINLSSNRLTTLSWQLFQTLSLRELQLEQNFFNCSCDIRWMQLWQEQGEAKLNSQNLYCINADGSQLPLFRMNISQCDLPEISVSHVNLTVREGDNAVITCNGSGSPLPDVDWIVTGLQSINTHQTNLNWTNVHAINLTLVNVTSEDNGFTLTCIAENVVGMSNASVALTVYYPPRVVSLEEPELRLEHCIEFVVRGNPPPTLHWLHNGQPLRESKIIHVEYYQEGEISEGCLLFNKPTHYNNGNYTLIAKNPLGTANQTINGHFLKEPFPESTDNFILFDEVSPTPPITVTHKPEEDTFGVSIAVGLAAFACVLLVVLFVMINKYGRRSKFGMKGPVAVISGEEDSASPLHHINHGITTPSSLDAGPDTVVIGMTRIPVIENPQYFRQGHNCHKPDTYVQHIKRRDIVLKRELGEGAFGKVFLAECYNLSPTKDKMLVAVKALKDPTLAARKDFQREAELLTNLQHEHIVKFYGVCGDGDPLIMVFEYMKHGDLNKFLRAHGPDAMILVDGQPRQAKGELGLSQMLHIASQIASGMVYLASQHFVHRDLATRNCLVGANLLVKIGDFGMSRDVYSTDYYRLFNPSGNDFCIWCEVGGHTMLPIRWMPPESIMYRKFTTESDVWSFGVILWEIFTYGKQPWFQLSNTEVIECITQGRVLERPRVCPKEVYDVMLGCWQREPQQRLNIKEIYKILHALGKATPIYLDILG
Summary of the method: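 BaF3 lines were seeded at 10,000 cells/well in growth medium with 1 mg/mL G418 but no IL-3, and MV-4-11 cells at 25,000 cells/well; plates were left overnight at 37 °C. Compounds were added as an 8-point 1:3 series with a top concentration of 10 μM and incubated 3 days. IC50 was taken from ATPlite luminescence.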

SKNSH cells = assay: SKNSH (human neuroblastoma) cell proliferation assay (ATPlite); format: cell-based; details: SK-N-SH, read-out: Inhibition of Cell Proliferation IC50, SKNSH
Experimental: Compounds are assessed in a variety of cell based assays. For example BaF3 cells engineered with any of BCR-FMS, BCR-KIT, BCR-FLT3, BCR-NTRK1, BCR-NTRK2, and BCR-NTRK3, are used in cell proliferation assays to assess inhibitory activity of Fms, Kit, Flt-3, TrkA, TrkB, and TrkC, respectively. An MV-4-11 (leukemia) cell proliferation assay is used to assess inhibitory activity in Flt-3, and SKNSH (human neuroblastoma) cell proliferation assay is used to assess efficacy of Fms/Trk inhibitors. Additional cells may be assayed similarly to assess the efficacy of Fms/Trk inhibitors, such as MiaPaCa (human pancreatic cancer) and Capan-1 (human pancreatic carcinoma) cells. Reagent and assay conditions are as follows: • BaF3 cells: • Maintained in RPMI containing 10% FBS, 1% PenStrep, 1% NEAA, and 1% L-Glutamine, supplemented with 1 mg/mL G418 and 5% WEHI-CM (or recombinant murine IL-3). • Confluent cells are split 1:50 to 1:100 every 3-4 days. • MV-4-11 cells: • Maintained in Iscove's Modified Dulbecco's Medium containing 10% FBS. • Confluent cells are split 1:4 every 3-4 days. • SKNSH cells: RPMI containing 10% FBS. On day 1, cells are counted, then centrifuged in a conical tube for 5 minutes at 1000 rpm. The supernatant is removed and cells are re-suspended as follows: • BaF3: resuspend in growth media +1 mg/mL G418 (without WEHFIL-3) to 2×10^5 cells/mL. • MV-4-11: resuspend in growth media to 5×10^5 cells/mL. • SKNSH: resuspend in growth media to 2×10^4 cells/mL. The cells are plated (50 μL, 150 μL for SKNSH cells) in each well of a 96-well dish (Corning 3610) and incubated at 37° C. in 5% CO2 overnight, cells plated to a final concentration of cells as follows: • BaF3: 10,000 cells per well. • MV-4-11: 25,000 cells per well. • SKNSH: 3,000 cells per well. On day 2, compound at a maximum concentration of 5 mM is serially diluted 1:3 for a total of 8 point titration with DMSO as a control. A 1 μL aliquot of each dilution point is added to 249 μL growth media and 50 μL is added to a well containing cells, providing 10 μM compound for the maximum concentration point. The cells are incubated for 3 days at 37° C. in 5% CO2. For SKNSH cells, a 0.75 μL aliquot of appropriate dilution in DMSO is added to 150 μL of cells. On day 5, ATPlite 1 step Luminescence Assay System (Perkin Elmer #6016739) is brought to room temperature along with the cell cultures. ATPlite is added to each well as follows: • BaF3: 25 μL per well. • MV-4-11: 40 μL per well. • SKNSH: 20 μL per well. The cells are incubated at room temperature for 10 minutes, then luminescence is read on Safire reader. The measured luminescence correlates directly with cell number, such that the reading as a function of compound concentration is used to determine the IC50 value.
It is understood that the results of these assays may vary as assay conditions are varied. Inhibition levels determined under the conditions described herein represent a relative activity for the compounds tested under the specific conditions employed. The cell based assays are likely to show variability due to the complexity of the system and the sensitivity thereof to any changes in the assay conditions. […] Results for compounds that are tested and show substantially no inhibition below the highest tested concentration are represented as “-” in the tables below. In some instances, the compounds were not tested in all of the assays, or assay results were not valid, as indicated by NA in the tables below.

Sequence of TrkA kinase (P04629 33-796): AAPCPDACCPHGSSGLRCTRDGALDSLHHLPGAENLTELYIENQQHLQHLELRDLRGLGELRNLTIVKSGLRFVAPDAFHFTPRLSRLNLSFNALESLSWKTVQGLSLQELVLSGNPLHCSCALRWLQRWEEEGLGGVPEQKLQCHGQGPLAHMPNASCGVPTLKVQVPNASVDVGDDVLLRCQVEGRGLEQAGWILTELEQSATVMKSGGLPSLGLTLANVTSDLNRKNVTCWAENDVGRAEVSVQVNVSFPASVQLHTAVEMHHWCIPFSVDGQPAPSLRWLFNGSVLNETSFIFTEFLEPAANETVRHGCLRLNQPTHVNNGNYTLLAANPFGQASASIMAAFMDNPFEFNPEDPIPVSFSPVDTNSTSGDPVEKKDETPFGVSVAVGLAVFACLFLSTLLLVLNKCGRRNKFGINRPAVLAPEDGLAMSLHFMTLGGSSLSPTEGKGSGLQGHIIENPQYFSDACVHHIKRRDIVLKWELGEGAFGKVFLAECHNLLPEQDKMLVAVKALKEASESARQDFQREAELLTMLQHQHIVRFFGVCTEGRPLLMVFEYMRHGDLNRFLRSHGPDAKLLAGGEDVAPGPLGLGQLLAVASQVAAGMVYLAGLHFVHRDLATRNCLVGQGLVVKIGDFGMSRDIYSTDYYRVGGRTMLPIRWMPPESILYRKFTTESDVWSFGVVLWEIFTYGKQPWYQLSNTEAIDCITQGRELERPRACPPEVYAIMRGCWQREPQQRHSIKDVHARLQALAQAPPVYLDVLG

| IC50 (TrkA kinase) [µM] | IC50 (BCR-NTRK3 BaF3 cells) [µM] | IC50 (SKNSH cells) [µM] | Structure (SMILES) |
| --- | --- | --- | --- |
| < 1 | < 1 | > 1 | CCn1cc(Nc2ccc(Cc3c[nH]c4ncnc(OC)c34)c(F)n2)cn1 [Compound P-4011, (1-Ethyl-1H-pyrazol-4-yl)-[6-fluoro-5-(4-methoxy-7H-pyrrolo[2,3-d]pyrimidin-5-ylmethyl)-pyridin-2-yl]-amine] |
| < 0.01 | < 0.01 | < 0.1 | Cc1cnc2[nH]cc(Cc3cnc(Nc4ccc(C(C)(C)C)cc4)nc3)c2c1 [Compound P-3030, (4-tert-Butyl-phenyl)-[5-(5-methyl-1H-pyrrolo[2,3-b]pyridin-3-ylmethyl)-pyrimidin-2-yl]-amine amine] |
| < 0.1 | < 0.1 | < 1 | COc1ccc(Nc2ncc(Cc3c[nH]c4ncc(C)cc34)cn2)cc1 [Compound P-3021, (4-Methoxy-phenyl)-[5-(5-methyl-1H-pyrrolo[2,3-b]pyridin-3-ylmethyl)-pyrimidin-2-yl]-amine] |
| < 0.1 | < 0.1 | < 1 | COc1ccc(Nc2ncc(Cc3c[nH]c4ncc(C)cc34)cn2)cn1 [Compound P-3020, (6-Methoxy-pyridin-3-yl)-[5-(5-methyl-1H-pyrrolo[2,3-b]pyridin-3-ylmethyl)-pyrimidin-2-yl]-amine] |
| < 0.01 | < 0.01 | < 1 | COc1ccc(Nc2ccc(C(=O)c3c[nH]c4ncnc(C5CC5)c34)c(F)n2)cn1 [Compound P-4022, (4-cyclopropyl-7H-pyrrolo[2,3-d]pyrimidin-5-yl)-[2-fluoro-6-(6-methoxy-pyridin-3-ylamino)-pyridin-3-yl]-methanone] |
| < 0.01 | < 0.1 | < 1 | CCOc1ncnc2[nH]cc(Cc3ccc(Nc4ccc(Br)nc4)nc3F)c12 [Compound P-4020, (6-Bromo-pyridin-3-yl)-[5-(4-ethoxy-7H-pyrrolo[2,3-d]pyrimidin-5-ylmethyl)-6-fluoro-pyridin-2-yl]-amine] |
| < 0.1 | < 0.1 | > 1 | Cc1ccc(Nc2ccc(Cc3c[nH]c4ncc(Cl)cc34)c(F)n2)cn1 [Compound P-3042, [5-(5-Chloro-1H-pyrrolo[2,3-b]pyridin-3-ylmethyl)-6-fluoro-pyridin-2-yl]-(6-methyl-pyridin-3-yl)-amine] |
| < 1 | < 0.1 | < 1 | CCCOc1ccc(Nc2ncc(Cc3c[nH]c4ncc(C)cc34)cn2)cc1 [Compound P-3024, [5-(5-Methyl-1H-pyrrolo[2,3-b]pyridin-3-ylmethyl)-pyrimidin-2-yl]-(4-propoxy-phenyl)-amine] |
| < 1 | < 0.1 | < 1 | CCn1ccc(Nc2ncc(Cc3c[nH]c4ncc(C)cc34)cn2)n1 [Compound P-3035, (1-Ethyl-1H-pyrazol-3-yl)-[5-(5-methyl-1H-pyrrolo[2,3-b]pyridin-3-ylmethyl)-pyrimidin-2-yl]-amine] |
| < 0.1 | < 0.1 | > 1 | CCOc1ccc(Nc2ccc(Cc3c[nH]c4ncc(C)cc34)c(F)n2)cn1 [Compound P-3039, (6-ethoxy-pyridin-3-yl)-[6-fluoro-5-(5-methyl-1H-pyrrolo[2,3-b]pyridin-3-ylmethyl)-pyridin-2-yl]-amine] |
| < 0.01 | < 0.1 | > 1 | CCOc1ccc(Nc2ccc(Cc3c[nH]c4ncnc(OCCOC)c34)c(F)n2)cn1 [Compound P-4008, (6-Ethoxy-pyridin-3-yl)-{6-fluoro-5-[4-(2-methoxy-ethoxy)-7H-pyrrolo[2,3-d]pyrimidin-5-ylmethyl]-pyridin-2-yl}-amine] |
| < 0.1 | < 0.1 | > 1 | Cc1ccc(Nc2ccc(C(=O)c3c[nH]c4ncc(Cl)cc34)c(F)n2)cn1 [Compound P-3044, (5-Chloro-1H-pyrrolo[2,3-b]pyridin-3-yl)-[2-fluoro-6-(6-methyl-pyridin-3-ylamino)-pyridin-3-yl]-methanone] |
| < 0.01 | < 0.01 | > 1 | COc1ccc(Nc2ccc(C(=O)c3c[nH]c4ncc(C)cc34)c(F)n2)cn1 [Compound P-3040, [2-Fluoro-6-(6-methoxy-pyridin-3-ylamino)-pyridin-3-yl]-(5-methyl-1H-pyrrolo[2,3-b]pyridin-3-yl)-methanone] |
| < 0.1 | < 0.1 | < 10 | COc1ccc(Nc2ccc(Cc3c[nH]c4ncc(C)cc34)c(F)n2)cn1 [Compound P-3019, [6-fluoro-5-(5-methyl-1H-pyrrolo[2,3-b]pyridin-3-ylmethyl)-pyridin-2-yl]-(6-methoxy-pyridin-3-yl)-amine] |
| > 1 | < 0.1 | > 1 | COCCOc1ncnc2[nH]cc(Cc3ccc(Nc4ccc(C)nc4)nc3F)c12 [Compound P-4015, {6-Fluoro-5-[4-(2-methoxy-ethoxy)-7H-pyrrolo[2,3-d]pyrimidin-5-ylmethyl]-pyridin-2-yl}-(6-methyl-pyridin-3-yl)-amine] |
| < 1 | < 0.1 | < 1 | Cc1cnc2[nH]cc(Cc3cnc(Nc4ccc(S(C)(=O)=O)cc4)nc3)c2c1 [Compound P-3034, (4-Methanesulfonyl-phenyl)-[5-(5-methyl-1H-pyrrolo[2,3-b]pyridin-3-ylmethyl)-pyrimidin-2-yl]-amine] |
| < 1 | < 1 | > 1 | CCn1cc(Nc2ccc(Cc3c[nH]c4ncnc(C)c34)c(F)n2)cn1 [Compound P-4013, (1-Ethyl-1H-pyrazol-4-yl)-[6-fluoro-5-(4-methyl-7H-pyrrolo[2,3-d]pyrimidin-5-ylmethyl)-pyridin-2-yl]-amine] |
| < 1 | < 1 | < 20 | CCn1cc(Nc2ncc(Cc3c[nH]c4ncc(C)cc34)cn2)cn1 [Compound P-3036, (1-Ethyl-1H-pyrazol-4-yl)-[5-(5-methyl-1H-pyrrolo[2,3-b]pyridin-3-ylmethyl)-pyrimidin-2-yl]-amine] |
| < 1 | < 0.1 | > 1 | Cc1cnc2[nH]cc(Cc3ccc(Nc4ccc(C)nc4)nc3F)c2c1 [Compound P-3041, [6-Fluoro-5-(5-methyl-1H-pyrrolo[2,3-b]pyridin-3-ylmethyl)-pyridin-2-yl]-(6-methyl-pyridin-3-yl)-amine] |
|  | < 1 | > 25 | Cc1cnc2[nH]cc(Cc3cnc(Nc4cc(OC(C)C)n[nH]4)nc3)c2c1 [Compound P-3038, (5-Isopropoxy-2H-pyrazol-3-yl)-[5-(5-methyl-1H-pyrrolo[2,3-b]pyridin-3-ylmethyl)-pyrimidin-2-yl]-amine] |
|  | > 1 | > 25 | Cc1cnc2[nH]cc(Cc3cnc(Nc4cc(C(F)(F)F)n[nH]4)nc3)c2c1 [Compound P-3037, [5-(5-Methyl-1H-pyrrolo[2,3-b]pyridin-3-ylmethyl)-pyrimidin-2-yl]-(5-trifluoromethyl-2H-pyrazol-3-yl)-amine] |
